Measured values taken from publication PMC6017444, “Effects of Lysozyme on the Activity of Ionic of Fluoroquinolone Species” (Molecules : A Journal of Synthetic Chemistry and Natural …, 2018).

Target: T1, lysozyme (Lyz) from chicken egg white (Gallus gallus, UniProt P00698)
T1 construct: native mature protein from egg white (signal peptide removed), 129 residues, four disulfides, commercial (Sigma-Aldrich), used without further purification
Assay: quenching of ligand fluorescence by protein (excitation […] nm), Stern-Volmer, static
Details: pH 7.4, 298 K, 10 mM Trizma; zwitterionic species; KSV taken as binding constant

T1 sequence (P00698 19-147): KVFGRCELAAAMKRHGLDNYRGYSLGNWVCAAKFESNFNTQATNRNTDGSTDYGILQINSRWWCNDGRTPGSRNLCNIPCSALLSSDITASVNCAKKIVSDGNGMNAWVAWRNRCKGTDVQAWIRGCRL

Compound	Stern-Volmer binding constant (KSV)
O=C(O)c1cn(C2CC2)c2cc(N3CCNCC3)c(F)cc2c1=O [Ciprofloxacin, 1-cyclopropyl-6-fluoro-4-oxo-7-(piperazin-1-yl)-1,4-dihydroquinoline-3-carboxylic acid]	(1.80 ± 0.01) × 10^4 L mol^-1
C[C@H]1COc2c(N3CCN(C)CC3)c(F)cc3c(=O)c(C(=O)O)cn1c23 [Levofloxacin]	(0.27 ± 0.02) × 10^4 L mol^-1
